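Compound exposure: 48 hours, 5 concentrations, 96-well plates. GI50 marks 50% less growth. TGI: concentration producing complete growth inhibition.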
Key:
Experiment in all cases: growth of human tumour cells (NCI), 48 h
HCT-116 colon = test system: HCT-116 colon
HL-60(TB) leukemia = test system: HL-60(TB) leukemia
KM12 colon = test system: KM12 colon
MDA-MB-435 = test system: MDA-MB-435
MOLT-4 leukemia = test system: MOLT-4 leukemia
OVCAR-3 ovarian = test system: OVCAR-3 ovarian
SN12C renal = test system: SN12C renal
SNB-19 CNS = test system: SNB-19 CNS
SNB-75 CNS = test system: SNB-75 CNS
NCI-H460 lung = test system: NCI-H460 lung

SMILES	TGI (HCT-116 colon) [µM]	TGI (HL-60(TB) leukemia) [µM]	TGI (KM12 colon) [µM]	TGI (MDA-MB-435) [µM]	TGI (MOLT-4 leukemia) [µM]	TGI (OVCAR-3 ovarian) [µM]	TGI (SN12C renal) [µM]	TGI (SNB-19 CNS) [µM]	TGI (SNB-75 CNS) [µM]	TGI (NCI-H460 lung) [µM]	GI50 (MOLT-4 leukemia) [µM]
C=C(C)[C@H]1C2=CC(C(=O)OC)=C(C[C@H](C(=C)C)[C@@H](O)[C@@H](O)C3=C[C@H]1OC3=O)O2	> 100	> 100	> 100	> 100	> 100	> 100	> 100	> 100	> 100		
CN1CC[C@]2(c3cccc(O)c3)CC(=O)/C(=C/c3ccccc3)[C@@H]1C2	5.94	5.33	11.4	5.38	5.59	4.43	13.6	18.2	5.27	7.23	
O=C(O)C(O)C(O)C(O)C(O)CO (stereo not drawn)	> 100	> 100	> 100	> 100	> 100	> 100	> 100	> 100	> 100	> 100	
C=C1C(=O)[C@@]23CC[C@@H]4[C@@]5(C)CCC[C@@]4(OC5=O)[C@@]2(C)CC[C@@H]1C3	2.92	> 100	10.2	13.7	> 26.1	3.95	23.5	9.08	13.1	3.74	
C[C@@H]1CCC2[C@@H](C)[C@@H](O[C@H]3O[C@@H]4O[C@@]5(C)CCC6[C@H](C)CCC([C@H]3C)[C@]64OO5)O[C@@H]3O[C@@]4(C)CCC1[C@@]23OO4 (stereo partly drawn)	> 25	> 5.22	> 25	> 25	> 25	> 25	> 25	> 25	> 25	> 25	
Cn1ncc2c(NCc3ccccc3)ncnc21	> 100	> 100	> 100	> 100	> 100	> 100	> 100	> 100	> 100	> 100	
COc1ccc(C(=O)NCCN(C)C)c2nc3ccccc3cc12	5.25	2.15	7.79	5.13	22.6	9.93	3.28	9.49	13.3	2.55	
N#CC(c1ccccc1)N(CCOCCOCCN(C(=O)c1ccccc1)C(C#N)c1ccccc1)C(=O)c1ccccc1 (stereo not drawn)	> 100	> 100	> 100	> 100	> 100	> 100	> 100	> 100	> 100	> 100	
Cc1ccc(/C=C2/N=C(N/N=C\C(O)C(O)C(O)C(O)CO)NC2=O)cc1 (stereo not drawn)	> 100	> 100	> 100	> 100	> 100	> 100	> 100	> 100	> 100	> 100	70.1
CCN(C(=O)N[C@@H](C)C(=O)N[C@@H](Cc1ccccc1)C(=O)OC)c1ccccc1	> 100	> 100	> 100	> 100	> 100	> 100	73.2	> 100	> 100	38.4	
COc1cccc2c1OC(c1cccc3ccccc13)C([N+](=O)[O-])=C2 (stereo not drawn)	2.45	> 100	3.05	3.02	5.71	2.74	11.2	3.01	2.65	3.77	
CN(C)Cc1cc(C(=O)/C=C/c2ccc([N+](=O)[O-])cc2)cc(CN(C)C)c1O	13.1	5.46	29.7	37.3	51.2	20.6	20.2	> 100	33.3		
CC(C(=O)COCc1ccccc1)P1(=O)OC(C)(C)CN1C(C)(C)C (stereo not drawn)	> 100	> 100	> 100	> 100	> 100	> 100	> 100		> 100	> 100	
O=C(CCSC1=NCCCN1)c1ccc(F)cc1	39.3	30.4	46.6	47.6	7.27	> 68.2	43.6	42.7	42.6	47.7	
COc1cc(C=O)ccc1O	> 100	> 100	> 100	> 100	> 100	> 100	> 100	> 100	> 100	> 100	
